Here are results for 8 compounds from US10351540B2, “1,2-dithiolane and dithiol compounds useful in treating mutant EGFR-mediated diseases and conditions” (Sabila Biosciences LLC, priority 2017, dated 2019).

A value given as a limit tells only on which side of the number the result lay.

The target in one test is T1, EGFR T790M (Homo sapiens, UniProt P00533, T790M).
T1 construct: made in house; host or cells: T7 phage in E. coli (BL21-derived) or HEK-293 cells
T1 sequence (P00533 25-1210 T790M): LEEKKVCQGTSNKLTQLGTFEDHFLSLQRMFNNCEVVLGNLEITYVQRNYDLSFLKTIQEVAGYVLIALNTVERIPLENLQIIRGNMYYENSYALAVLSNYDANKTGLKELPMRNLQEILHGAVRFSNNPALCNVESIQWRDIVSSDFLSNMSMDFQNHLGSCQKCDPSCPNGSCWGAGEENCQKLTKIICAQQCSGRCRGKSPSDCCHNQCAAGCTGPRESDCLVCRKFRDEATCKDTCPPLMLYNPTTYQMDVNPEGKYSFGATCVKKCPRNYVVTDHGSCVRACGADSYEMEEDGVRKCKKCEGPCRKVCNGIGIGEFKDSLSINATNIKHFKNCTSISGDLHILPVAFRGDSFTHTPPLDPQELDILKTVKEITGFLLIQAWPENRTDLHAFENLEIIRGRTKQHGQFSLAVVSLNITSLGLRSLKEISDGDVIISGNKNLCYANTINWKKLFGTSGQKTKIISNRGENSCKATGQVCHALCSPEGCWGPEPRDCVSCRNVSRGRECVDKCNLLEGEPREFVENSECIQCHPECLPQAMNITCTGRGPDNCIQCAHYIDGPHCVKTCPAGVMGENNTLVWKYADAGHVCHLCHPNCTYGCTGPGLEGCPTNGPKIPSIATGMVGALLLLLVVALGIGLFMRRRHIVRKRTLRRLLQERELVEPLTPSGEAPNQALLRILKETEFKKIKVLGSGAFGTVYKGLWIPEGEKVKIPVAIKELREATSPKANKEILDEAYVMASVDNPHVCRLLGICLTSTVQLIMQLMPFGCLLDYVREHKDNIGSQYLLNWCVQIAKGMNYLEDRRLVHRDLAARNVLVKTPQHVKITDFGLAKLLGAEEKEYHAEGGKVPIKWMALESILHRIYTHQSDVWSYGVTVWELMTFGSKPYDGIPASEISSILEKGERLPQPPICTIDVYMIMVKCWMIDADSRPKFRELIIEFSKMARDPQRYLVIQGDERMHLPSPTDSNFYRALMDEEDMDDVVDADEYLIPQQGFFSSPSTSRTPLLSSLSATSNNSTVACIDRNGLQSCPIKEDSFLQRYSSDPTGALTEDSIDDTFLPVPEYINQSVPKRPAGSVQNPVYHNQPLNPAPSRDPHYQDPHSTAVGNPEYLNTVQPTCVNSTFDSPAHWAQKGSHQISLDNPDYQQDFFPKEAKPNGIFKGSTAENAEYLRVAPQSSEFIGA
Briefly: KINOMEscan competition binding kinase assay, Kd (Method B). To be noted: Method B (Kd values).
Method: The assay is performed by combining three components: DNA-tagged kinase; immobilized ligand; and a test compound. The ability of the test compound to compete with the immobilized ligand is measured via quantitative PCR of the DNA tag.
For most assays, kinase-tagged T7 phage strains were prepared in an E. coli host derived from the BL21 strain. E. coli were grown to log-phase and infected with T7 phage and incubated with shaking at 32° C. until lysis. The lysates were centrifuged and filtered to remove cell debris. The remaining kinases were produced in HEK-293 cells and subsequently tagged with DNA for qPCR detection. Streptavidin-coated magnetic beads were treated with biotinylated small molecule ligands for 30 minutes at room temperature to generate affinity resins for kinase assays. The liganded beads were blocked with excess biotin and washed with blocking buffer (SeaBlock (Pierce), 1% BSA, 0.05% Tween 20, 1 mM DTT) to remove unbound ligand and to reduce non-specific binding. […] All reactions were performed in polystyrene 96-well plates in a final volume of 0.135 ml. […] The kinase concentration in the eluates was measured by qPCR.
For orientation: Kd means a measure of binding affinity in units of concentration. Read a high Kd as lower affinity. Turning to `COc1cc(N(C)CCN(C)C)c(NC(=O)C(CSC(C)=O)CSC(C)=O)cc1Nc1nccc(-c2cn(C)c3ccccc23)n1` [Example 28, S,S′-(2-((2-((2-(dimethylamino)ethyl)(methyl)amino)-4-methoxy-5-((4-(1-methyl-1H-indol-3-yl)pyrimidin-2-yl)amino)phenyl)carbamoyl)propane-1,3-diyl)diethanethioate], the Kd is 100 to 999 nM.

`COc1cc(N(C)CCN(C)C)c(NC(=O)C2CSSC2)cc1Nc1nccc(-c2cn(C)c3ccccc23)n1` [Example 29, N-(2-((2-(dimethylamino)ethyl)(methyl)amino)-4-methoxy-5-((4-(1-methyl-1H-indol-3-yl)pyrimidin-2-yl)amino)phenyl)-1,2-dithiolane-4-carboxamide] showed an equilibrium dissociation constant (Kd) of 100 to 999 nM.

Take `COc1cc(N2CCN(C)CC2)ccc1Nc1ncc(Cl)c(Nc2cccc(NC(=O)C(CSC(C)=O)CSC(C)=O)c2)n1` [Example 40, S,S′-(2-((3-((5-chloro-2-((2-methoxy-4-(4-methylpiperazin-1-yl)phenyl)amino)pyrimidin-4-yl)amino)phenyl)carbamoyl)propane-1,3-diyl)diethanethioate]: the Kd was 100 to 999 nM.

The compound `COc1cc(N2CCN(C)CC2)ccc1Nc1ncc(Cl)c(Nc2cccc(NC(=O)C3CSSC3)c2)n1` [Example 41, N-(3-((5-chloro-2-((2-methoxy-4-(4-methylpiperazin-1-yl)phenyl)amino)pyrimidin-4-yl)amino)phenyl)-1,2-dithiolane-4-carboxamide] gave a Kd of 1 to 99 nM.

Consider `COc1cc(N2CCN(C)CC2)ccc1Nc1ncc(Cl)c(Oc2cccc(NC(=O)C(CSC(C)=O)CSC(C)=O)c2)n1` [Example 35, S,S′-(2-((3-((5-chloro-2-((2-methoxy-4-(4-methylpiperazin-1-yl)phenyl)amino)pyrimidin-4-yl)oxy)phenyl)carbamoyl)propane-1,3-diyl)diethanethioate], for which the equilibrium dissociation constant (Kd) was over 10000 nM.

`COc1cc(N2CCN(C)CC2)ccc1Nc1ncc(Cl)c(Oc2cccc(NC(=O)C3CSSC3)c2)n1` [Example 36, N-(3-((5-chloro-2-((2-methoxy-4-(4-methylpiperazin-1-yl)phenyl)amino)pyrimidin-4-yl)oxy)phenyl)-1,2-dithiolane-4-carboxamide] registered an equilibrium dissociation constant (Kd) of 1000 to 10000 nM.

The target in a further test is T2, EGFR (L858R) (Homo sapiens, UniProt P00533, L858R).
T2 construct: made in house; host or cells: cell-free translation in rabbit reticulocyte lysate
T2 sequence (P00533 25-1210 L858R): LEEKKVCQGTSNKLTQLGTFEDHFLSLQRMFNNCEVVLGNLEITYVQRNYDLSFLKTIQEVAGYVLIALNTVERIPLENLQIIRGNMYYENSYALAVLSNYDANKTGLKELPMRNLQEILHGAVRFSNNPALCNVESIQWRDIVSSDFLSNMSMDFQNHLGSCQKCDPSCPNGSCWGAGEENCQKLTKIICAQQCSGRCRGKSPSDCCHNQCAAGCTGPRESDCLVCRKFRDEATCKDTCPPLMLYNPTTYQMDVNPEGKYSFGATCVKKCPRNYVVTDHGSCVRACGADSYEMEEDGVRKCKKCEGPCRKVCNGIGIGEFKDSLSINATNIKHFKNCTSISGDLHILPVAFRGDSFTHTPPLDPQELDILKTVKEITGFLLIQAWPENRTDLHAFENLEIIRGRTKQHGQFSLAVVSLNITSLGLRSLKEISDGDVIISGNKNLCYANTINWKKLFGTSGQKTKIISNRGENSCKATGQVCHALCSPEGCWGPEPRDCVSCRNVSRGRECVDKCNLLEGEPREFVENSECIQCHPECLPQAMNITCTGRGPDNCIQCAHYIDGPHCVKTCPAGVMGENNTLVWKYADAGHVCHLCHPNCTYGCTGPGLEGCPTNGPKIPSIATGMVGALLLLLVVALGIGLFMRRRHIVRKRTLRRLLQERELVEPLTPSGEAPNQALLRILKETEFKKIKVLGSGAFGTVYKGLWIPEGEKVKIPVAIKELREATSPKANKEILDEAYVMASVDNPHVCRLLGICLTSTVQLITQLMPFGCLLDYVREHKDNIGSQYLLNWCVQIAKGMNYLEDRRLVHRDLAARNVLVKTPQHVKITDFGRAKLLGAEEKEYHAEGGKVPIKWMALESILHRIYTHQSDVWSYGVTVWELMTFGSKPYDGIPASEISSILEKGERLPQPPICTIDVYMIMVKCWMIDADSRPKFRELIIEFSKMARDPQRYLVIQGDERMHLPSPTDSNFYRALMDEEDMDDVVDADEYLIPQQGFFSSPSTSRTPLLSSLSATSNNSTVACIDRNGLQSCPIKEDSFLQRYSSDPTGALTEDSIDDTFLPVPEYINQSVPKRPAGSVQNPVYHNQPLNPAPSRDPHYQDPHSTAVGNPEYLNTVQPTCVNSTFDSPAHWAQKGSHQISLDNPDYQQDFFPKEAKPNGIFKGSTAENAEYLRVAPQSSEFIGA
The test can be described thus: KinaseSeeker competition binding assay, rabbit reticulocyte lysate (Method A). Conditions: 7-point curve, duplicate. The procedure:
Method A: Rabbit Reticulocyte Lysate Assay Design: KinaseSeeker is a homogeneous competition binding assay where the displacement of an active site dependent probe by an inhibitor is measured by a change in luminescence signal. Luminescence readout translates into a highly sensitive and robust assay with low background and minimal interference from test compounds.
10 mM stock solutions of test compounds were serially diluted in DMSO to make assay stocks. Prior to initiating IC50 determinations, the test compounds were evaluated for false positive against split-luciferase.
Each test compound was screened in duplicate against target kinase i.e. EGFR (L858R) at 7 different concentrations. For kinase assays, Cfluc-kinase was translated along with Fos-Nfluc using a cell-free system (rabbit reticulocyte lysate) at 30° C. for 90 min. […] 80 uL of luciferin assay reagent was added to each solution and luminescence was immediately measured on a luminometer.
The % Inhibition and % Activity Remaining was calculated using the following equation: % Inhibition=[(ALUControl=ALUSample)/ALUControl]×100 % Activity Remaining=100−% Inhibition
The % Activity was plotted against compound concentration and the IC50 was determined for each compound using a 7-point curve (Jester, B. W.; et. al. J. Am. Chem. Soc. 2010, 132, 11727-11735. Jester, B. W.; et. al. J. Med. Chem. 2012, 55, 1526-1537). […]
By IC50 is commonly meant the concentration that inhibits the measured activity by half. Read a low IC50 as inhibition by little substance. As to `CCOc1ncnc(Nc2ccc(OCc3cccc(F)c3)c(Cl)c2)c1NC(=O)CC1CCSS1` (centres unmarked) [Example 20], the IC50 lay in the range of 1000 to 10000 nM.

With `O=C(C[C@@H]1CCSS1)Nc1c(Nc2ccc(OCc3cccc(F)c3)c(Cl)c2)ncnc1OC[C@H](O)CO` [Example 24, N-(4-((3-chloro-4-((3-fluorobenzyl)oxy)phenyl)amino)-6-((R)-2,3-dihydroxypropoxy)pyrimidin-5-yl)-2-((R)-1,2-dithiolan-3-yl)acetamide], the IC50 is over 10000 nM.
